# Columns and labels:
# Format in all cases: cell-based, human
# [1] = system: VLCAD deficient fibroblasts (Fb671, Fb773, Fb834, Fb833); test: Superoxide production (MitoSOX Red, flow cytometry) in VLCAD deficient fibroblasts; conditions: patient cells, media without glucose 48 h, after 24 h of treatment; FIGS. 27 and 28
# Protocol: ROS generation: control and patient fibroblasts were cultivated in normal media or without glucose for 48 hours, then incubated for 15 min with MitoSox Red (Life Technologies). Fluorescence was evaluated by flow cytometry.
# (§1) Cells were grown in Dulbecco's Modified Eagle Medium (DMEM), Corning Life Sciences, Manassas, Va., containing high glucose levels or in DMEM devoid of glucose for 48-72 h. Both media were supplemented with glutamine, 10% fetal bovine serum, 4 mM glutamine, 100 IU penicillin and 100 μg/mL streptomycin, Corning Life Sciences, Manassas, Va.
# (§2) Cells were treated with different compounds in different concentrations 24 or 48 h before the assays. The compounds used were N-acetylcysteine (1 mM), bezafibrate (600 μM), resveratrol (75 μM), MiloQ (200 nM), trolox (1 mM) and JP4-039 (40 and 200 nM).
# (§3) Cell suspension containing 1×10^5 cells per mL were incubated for 25 min at 37° C. with 150 nM Mitotracker Green, Invitrogen, Grand Island, N.Y., for mitochondrial mass evaluation or for 15 min at 37° C. with 5 μM MitoSOX Red, Invitrogen, Grand Island, N.Y., for superoxide production measurement. After incubation, 10,000 cells samples were analyzed in a Becton Dickinson FACSAria II flow cytometer, BD Biosciences, San Jose, Calif.
# [2] = system: VLCAD deficient fibroblasts (Fb671, Fb773, Fb834); test: Oxygen consumption rate (Seahorse analyzer) in VLCAD deficient fibroblasts; conditions: FB671, media without glucose, FIG. 25
# Protocol: Oxygen consumption assay: Fibroblasts controls and from patients with VLCAD deficiency were cultivated in normal media or in the absence of glucose for 72 hours. The oxygen consumption was monitored by a Seahorse XFe96 Extracellular Flux Analyzer (Seahorse Bioscience, Billerica, Mass.).
# as §1, §2
# Oxygen consumption rate (OCR) was measured with a Seahorse XF^c96 Extracellular Flux Analyzer (Seahorse Bioscience, Billerica, Mass.). The apparatus contains a fluorophore that is sensitive to changes in oxygen concentration, which enables it to accurately measure the rate at which cytochrome c oxidase (complex IV) reduces one O2 molecule to two H2O molecules during OXPHOS. Cells were seeded in 96-well Seahorse tissue culture microplates in growth media at a density of 80,000 cells per well. To ensure equal cell numbers, cells were seeded in cell culture plates pre-coated with Cell-Tak (BD Biosciences, San Jose, Calif.). All cell lines were measured with four to six wells per cell line. Then, the entire experiments were repeated. Before running the Seahorse assay, cells were incubated for 1 h without CO2 in unbuffered DMEM. Initial OCR was measured to establish a baseline (basal respiration). Reserve capacity was also determined after the injection of 300 nM carbonyl cyanide 4-(trifluoromethoxy) phenylhydrazone (FCCP), Seahorse XF Cell Mito Stress Test Kit, Santa Clara, Calif. Data were reported in pmol/min for OCR.
# [3] = system: FAO deficient fibroblasts; test: Superoxide production (MitoSOX dye) in FAO deficient fibroblasts; conditions: FAO deficient fibroblasts cultured in absence of glucose 48-72 h
# Protocol: FAO deficient fibroblasts were cultured in the absence of glucose for 48-72 h to shift to fatty acids as the energy source. Oxygen consumption rate (OCR) was monitored by a Seahorse XF analyzer (See FIG. 23). Mitochondrial mass was examined by MitoTracker Green and ROS generation by MitoSOX dye. Protein immunocontent was evaluated by western blotting. […] Testing of XJB-5-131 was conducted essentially as described for JP4-039.
# as §3
SMILES,Superoxide generation (increased levels in VLCAD deficient cells) [1],Reserved capacity (oxygen consumption) ([2]; 40 nM),Basal respiration (oxygen consumption) ([2]; 200 nM),Reserved capacity (oxygen consumption) ([2]; 200 nM),Increased superoxide production [3]
COC1=C(OC)C(=O)C(CCCCCCCCCC[P+](c2ccccc2)(c2ccccc2)c2ccccc2)=C(C)C1=O [MitoQ],JP4-039 was the only antioxidant able to decrease superoxide generation,,,,
Oc1ccc(C=Cc2cc(O)cc(O)c2)cc1 [resveratrol],JP4-039 was the only antioxidant able to decrease superoxide generation,,,,
CC(=O)N[C@@H](CS)C(=O)O [N-acetylcysteine],JP4-039 was the only antioxidant able to decrease superoxide generation,,,,
CC(C)C[C@@H](/C=C/[C@H](Cc1ccccc1)C(=O)N1CCC[C@H]1C(=O)N[C@H](C(=O)N[C@@H](CCCNC(=O)OCc1ccccc1)C(=O)NC1CC(C)(C)N([O])C(C)(C)C1)C(C)C)NC(=O)OC(C)(C)C [XJB-5-131],,improves,improved,improves,prevented

# Reference: patent US20190142893A1, “Electron, Radical, or Reactive Oxygen Species-Scavenging Agent Based Therapy of Inborn Errors of Fatty Acid Oxidation and Oxidative Phosphorylation” (University of Pittsburgh- Of the Commonwealth System of …, priority 2016, published 2019)
